Like-named read-outs stand apart in the source and are kept apart here.
Tested on: HBV rcDNA in HepDE19 cells
Experiment: HepDE19 assay with bDNA quantitation of HBV rcDNA
Assay type: cell-based, hepatitis B virus (HBV)
Description: HepDE19 Assay with bDNA Quantitation of HBV rcDNA:
HepDE19 cell culture system is a HepG2 (human hepatocarcinoma) derived cell line that supports HBV DNA replication and cccDNA formation in a tetracycline (Tet)-regulated manner and produces HBV rcDNA and a detectable reporter molecule dependent on the production and maintenance of cccDNA (Guo, et al., 2007, J. Virol. 81:12472-12484).
HepDE19 (50,000 cells/well) were plated in 96 well collagen-coated tissue-culture treated microtiter plates in DMEM/F12 medium supplemented with 10% fetal bovine serum, 1% penicillin-streptomycin and 1 μg/mL tetracycline and incubated in a humidified incubator at 37° C. and 5% CO2 overnight. Next day, the cells were switched to fresh medium without tetracycline and incubated for 4 hours at 37° C. and 5% CO2. The cells were treated with fresh Tet-free medium with compounds at concentrations starting at 25 μM and a serial, ½ log, 8-point, titration series in duplicate. The final DMSO concentration in the assay was 0.5%. The plates were incubated for 7 days in a humidified incubator at 37° C. and 5% CO2. Following a 7 day-incubation, the level of rcDNA present in the inhibitor-treated wells was measured using a Quantigene 2.0 bDNA assay kit (Affymetrix, Santa Clara, Calif.) with HBV specific custom probe set and manufacturers instructions. Concurrently, the effect of compounds on cell viability was assessed using replicate plates, plated at a density of 5,000 cells/well and incubated for 4 days, to determine the ATP content as a measure of cell viability using the cell-titer glo reagent (CTG; Promega Corporation, Madison, Wis.) as per manufacturer's instructions. The plates were read using a Victor luminescence plate reader (PerkinElmer Model 1420 Multilabel counter) and the relative luminescence units (RLU) data generated from each well was calculated as % inhibition of the untreated control wells and analyzed using XL-Fit module in Microsoft Excel to determine EC50 and EC90 (bDNA) and CC50 (CTG) values using a 4-parameter curve fitting algorithm.
Representative compounds of the invention were tested for their ability to inhibit formation of relaxed circular DNA (rcDNA) in a HepDE19 assay, as described elsewhere herein.

[1] = Hepatitis B virus, HepDE19, 168 h, HepDE19 cells, 7 day incubation, rcDNA by Quantigene 2.0 bDNA assay, read-out: DE-19 bDNA EC50
[2] = HepDE19 cells, 7 day incubation, rcDNA by Quantigene 2.0 bDNA assay, read-out: DE-19 bDNA EC50
[3] = Hepatitis B virus, HepDE19, 168 h, read-out: DE-19 bDNA EC50, HepDE19 cells, 7 day incubation, rcDNA by Quantigene 2.0 bDNA assay

Row | Compound | EC50 [1] [µM] | further results
1 | CC(=O)N1CC(COC(=O)N[C@H]2CCOc3c(C(=O)Nc4ccc(F)c(C)c4)ccc(F)c32)C1 [Compound 161, (1-Acetylazetidin-3-yl)methyl (S)-(5-fluoro-8-((4-fluoro-3-methylphenyl)carbamoyl)chroman-4-yl)carbamate] | 0.85 | –
2 | O=C(N[C@H]1CCOc2c(C(=O)Nc3ccc(F)c(F)c3)cccc21)OCC1CCNC1 (single isomer, unassigned) [Compound 109] | – | EC50 [2]: 21 µM
3 | O=C(N[C@H]1CCOc2c(C(=O)Nc3ccc(F)c(Cl)c3)ccc(F)c21)OCCc1ccccn1 [Compound 153, 2-(Pyridin-2-yl)ethyl (S)-(8-((3-chloro-4-fluorophenyl)carbamoyl)-5-fluorochroman-4-yl)carbamate] | 0.53 | –
4 | CN1CCCC(COC(=O)N[C@H]2CCOc3c(C(=O)Nc4ccc(F)c(F)c4)cccc32)C1 (single isomer, unassigned) [Compound 98] | 23 | –
5 | COC(=O)N[C@H]1CCOc2c(C(=O)Nc3ccccc3)cccc21 [Compound 35, Methyl (S)-(8-(phenylcarbamoyl)chroman-4-yl)carbamate] | 7.5 | –
6 | COC(=O)N[C@H]1CCOc2c(C(=O)Nc3cc(F)c(F)c(F)c3)cccc21 [Compound 45, Methyl (S)-(8-((3,4,5-trifluorophenyl)carbamoyl)chroman-4-yl)carbamate] | 1.2 | –
7 | CNC(=O)N[C@H]1CCOc2c1ccc(Cl)c2C(=O)Nc1ccc(F)c(F)c1 [Compound 84, (S)-7-Chloro-N-(3,4-difluorophenyl)-4-(3-methylureido)chromane-8-carboxamide] | – | EC50 [3]: 11 µM
8 | O=C(N[C@H]1CCOc2c(C(=O)Nc3ccc(F)c(F)c3)cccc21)OCc1ccon1 [Compound 103, Isoxazol-3-ylmethyl (S)-(8-((3,4-difluorophenyl)carbamoyl)chroman-4-yl)carbamate] | 2.1 | –
9 | CC(=O)N1CCC(COC(=O)N[C@H]2CCOc3c(C(=O)Nc4ccc(F)c(F)c4)cccc32)C1 (single isomer, unassigned) [Compound 145] | – | EC50 (read-out: DE-19 bDNA EC50, HepDE19 cells, 7 day incubation, rcDNA by Quantigene 2.0 bDNA assay): 7 µM
10 | O=C(Nc1ccc(F)c(F)c1)c1cccc2c1OCC[C@@H]2O [Compound 5, (S)-N-(3,4-difluorophenyl)-4-hydroxychromane-8-carboxamide] | 3.9 | –
11 | CC[C@@H](C)OC1CCOc2c(C(=O)Nc3ccc(F)c(F)c3)cccc21 (stereo partly drawn) [Compound 14, 4-((R)-sec-butoxy)-N-(3,4-difluorophenyl)chromane-8-carboxamide] | 6 | –
12 | O=C(N[C@H]1CCCc2c(C(=O)Nc3ccc(F)c(F)c3)cccc21)OCc1ccccn1 [Compound 186, Pyridin-2-ylmethyl (S)-(5-((3,4-difluorophenyl)carbamoyl)-1,2,3,4-tetrahydronaphthalen-1-yl)carbamate] | – | EC50 [3]: 5.6 µM
13 | Cc1cc(NC(=O)c2ccc(F)c3c2OCC[C@@H]3NC(=O)OCc2ncccn2)ccc1F [Compound 120, Pyrimidin-2-ylmethyl (S)-(5-fluoro-8-((4-fluoro-3-methylphenyl)carbamoyl)chroman-4-yl)carbamate] | 0.54 | –
14 | CS(=O)(=O)N1CCC(COC(=O)N[C@H]2CCOc3c(C(=O)Nc4ccc(F)c(Cl)c4)ccc(F)c32)CC1 [Compound 162, (1-(Methylsulfonyl)piperidin-4-yl)methyl (S)-(8-((3-chloro-4-fluorophenyl)carbamoyl)-5-fluorochroman-4-yl)carbamate] | – | EC50 [3]: 6.1 µM
15 | COC1CCOc2c(C(=O)Nc3ccc(F)c(F)c3)cccc21 (single isomer, unassigned) [Compound 7, N-(3,4-difluorophenyl)-4-methoxychromane-8-carboxamide] | – | EC50 [2]: 1.8 µM
16 | CNC(=O)N[C@H]1CCCc2c(C(=O)Nc3ccc(F)c(F)c3)cccc21 [Compound 185, (S)—N-(3,4-Difluorophenyl)-5-(3-methylureido)-5,6,7,8-tetrahydronaphthalene-1-carboxamide] | – | EC50 [3]: 9.8 µM

Row | Compound | EC50 [1] [µM] | further results
17 | COC(=O)N[C@H]1CCOc2c(C(=O)Nc3ccnc(C)c3)ccc(F)c21 [Compound 135, methyl (S)-(5-fluoro-8-((2-methylpyridin-4-yl)carbamoyl)chroman-4-yl)carbamate] | 9.7 | –
18 | O=C(N[C@@H]1CCOc2c(C(=O)Nc3ccc(F)c(F)c3)cccc21)OCc1ccncc1 [Compound 30, pyridin-4-ylmethyl (R)-(8-((3,4-difluorophenyl)carbamoyl)chroman-4-yl)carbamate] | 11 | –
19 | CC(=O)N1CCCC1COC(=O)N[C@H]1CCOc2c(C(=O)Nc3ccc(F)c(F)c3)cccc21 (single isomer, unassigned) [Compound 139] | – | EC50 [3]: 4.6 µM
20 | COC(=O)N[C@H]1CCOc2c(C(=O)Nc3ccc(F)c(Cl)c3)cccc21 [Compound 32, Methyl (S)-(8-((3-chloro-4-fluorophenyl)carbamoyl)chroman-4-yl)carbamate] | 0.85 | –
21 | O=C(Nc1ccc(F)c(F)c1)c1cccc2c1OCCC2c1ccncc1 (single isomer, unassigned) [Compound 69, N-(3,4-Difluorophenyl)-4-(pyridin-4-yl)chromane-8-carboxamide] | 12 | –
22 | COC(=O)N[C@H]1CCOc2c(C(=O)Nc3ccc(F)cc3)cccc21 [Compound 33, Methyl (S)-(8-((4-fluorophenyl)carbamoyl)chroman-4-yl)carbamate] | 3.5 | –
23 | Cc1cc(NC(=O)c2ccc(F)c3c2OCC[C@@H]3NC(=O)OC[C@H]2CCC(=O)N2C)ccc1F [Compound 168, ((R)-1-Methyl-5-oxopyrrolidin-2-yl)methyl ((S)-5-fluoro-8-((4-fluoro-3-methylphenyl)carbamoyl)chroman-4-yl)carbamate] | 1.6 | –
24 | O=C(N[C@H]1CCOc2c(C(=O)Nc3ccc(F)c(F)c3)cccc21)OCC1CCCNC1 (single isomer, unassigned) [Compound 87] | 16 | –
25 | CC(C)(C)OC(=O)N[C@H]1CCOc2c(C(=O)Nc3ccc(F)c(Cl)c3)ccc(F)c21 [Compound 158, tert-Butyl (S)-(8-((3-chloro-4-fluorophenyl)carbamoyl)-5-fluorochroman-4-yl)carbamate] | 5.8 | –
26 | O=C(N[C@H]1CCOc2c(C(=O)Nc3ccc(F)c(F)c3)cccc21)OCC1CCCCN1 (single isomer, unassigned) [Compound 86] | – | EC50 [2]: 15 µM
27 | O=C(Nc1ccc(F)c(F)c1)c1cccc2c1OCCC2O (stereo not shown) [Compound 3, N-(3,4-difluorophenyl)-4-hydroxychromane-8-carboxamide] | 3.4 | –
28 | CNC(=O)N[C@@H]1CCOc2c(C(=O)Nc3ccc(F)c(F)c3)ccc(F)c21 [Compound 41, (R)-N-(3,4-difluorophenyl)-5-fluoro-4-(3-methylureido) chromane-8-carboxamide] | 23 | –
29 | O=C1C[C@@H](COC(=O)N[C@H]2CCOc3c(C(=O)Nc4ccc(F)c(Cl)c4)ccc(F)c32)N1 [Compound 154, ((S)-4-Oxoazetidin-2-yl)methyl ((S)-8-((3-chloro-4-fluorophenyl)carbamoyl)-5-fluorochroman-4-yl)carbamate] | 1.1 | –
30 | O=C(N[C@H]1CCOc2c(C(=O)Nc3ccc(F)c(F)c3)cccc21)c1ccncc1 [Compound 16] | 13 | –
31 | O=C(N[C@H]1CCOc2c1ccc(F)c2C(=O)Nc1ccc(F)c(Cl)c1)OCc1ccccn1 [Compound 76, (S)-Pyridin-2-ylmethyl (8-((3-chloro-4-fluorophenyl)carbamoyl)-7-fluorochroman-4-yl)carbamate] | 1.9 | –

— patent publication US11001564B2, “Substituted chromane-8-carboxamide compounds and analogues thereof, and methods using same” (priority 2016, dated 2021)
